Legend:
Hut78 T-cells = experiment: Transwell migration of Hut78 T-cells through collagen type-IV; assay type: cell-based, human
Experimental: FIGS. 4A-4H. […] Briefly, membranes from transwell migration chambers were coated with either native collagen type-IV or denatured collagen type-IV. T-cell variants were incubated with non-specific control peptide CP, or the RGDKGE (SEQ ID NO: 1)-containing collagen peptide (P2) and seed on the coated transwell membranes. T-cells were allowed to migrate in the presence or absence of SDF-1 added to the lower chamber for approximately 1.5 hours. Cell migration was quantified by counting the number of crystal violet stained cells that had migrated through to the underside of the coated membrane. FIG. 4A. Jurkat T-cell migration through denatured collagen type-IV in the presence of non-specific control peptide CP or RGDKGE (SEQ ID NO: 1)-containing collagen peptide P2 with SDF-1. FIG. 4B. Jurkat T-cell migration through native collagen type-IV in the presence of non-specific control peptide CP or RGDKGE (SEQ ID NO: 1)-containing collagen peptide P2 with SDF-1. FIG. 4C. Cem/C1 T-cell migration through denatured collagen type-IV in the presence of non-specific control peptide CP or RGDKGE (SEQ ID NO: 1)-containing collagen peptide P2 with SDF-1. FIG. 4D. Cem/C1 T-cell migration through native collagen type-IV in the presence of non-specific control peptide CP or RGDKGE (SEQ ID NO: 1)-containing collagen peptide P2. FIG. 4E. Hut78 T-cell migration through denatured collagen type-IV in the presence of non-specific control peptide CP or RGDKGE (SEQ ID NO: 1)-containing collagen peptide P2. FIG. 4F. Hut78 T-cell migration through native collagen type-IV in the presence of non-specific control peptide CP or RGDKGE (SEQ ID NO: 1)-containing collagen peptide P2. FIG. 4G Primary CD8+ T-cell migration through denatured collagen type-IV in the presence of non-specific control peptide CP or RGDKGE (SEQ ID NO: 1)-containing collagen peptide P2 with SDF-1. FIG. 4H. CD8+ T-cell migration through native collagen type-IV in the presence of non-specific control peptide CP or RGDKGE (SEQ ID NO: 1)-containing collagen peptide P2 with SDF-1. Data bars indicate the mean cell migration±S.E. *P<0.05.
Given our new observations, and the fact that many tumor types as well as immunosuppressive macrophages can secrete the small soluble RGDKGE (SEQ ID NO: 1) collagen peptide, we next sought to determine whether this soluble collagen peptide could impact T-cell migration through denatured collagen type-IV, a critical ECM component shown to be selectively enriched in tumor vessels. Briefly, membranes from transwell migration chambers were coated with either native collagen type-IV or denatured collagen type-IV. […] Cell migration was quantified following staining cells with crystal violet (6,8). […]

αvβ3 = αvβ3 (Homo sapiens, UniProt P05106+P06756); settings: cited from earlier work
Chain of αvβ3 (P06756 31-889 limits assumed): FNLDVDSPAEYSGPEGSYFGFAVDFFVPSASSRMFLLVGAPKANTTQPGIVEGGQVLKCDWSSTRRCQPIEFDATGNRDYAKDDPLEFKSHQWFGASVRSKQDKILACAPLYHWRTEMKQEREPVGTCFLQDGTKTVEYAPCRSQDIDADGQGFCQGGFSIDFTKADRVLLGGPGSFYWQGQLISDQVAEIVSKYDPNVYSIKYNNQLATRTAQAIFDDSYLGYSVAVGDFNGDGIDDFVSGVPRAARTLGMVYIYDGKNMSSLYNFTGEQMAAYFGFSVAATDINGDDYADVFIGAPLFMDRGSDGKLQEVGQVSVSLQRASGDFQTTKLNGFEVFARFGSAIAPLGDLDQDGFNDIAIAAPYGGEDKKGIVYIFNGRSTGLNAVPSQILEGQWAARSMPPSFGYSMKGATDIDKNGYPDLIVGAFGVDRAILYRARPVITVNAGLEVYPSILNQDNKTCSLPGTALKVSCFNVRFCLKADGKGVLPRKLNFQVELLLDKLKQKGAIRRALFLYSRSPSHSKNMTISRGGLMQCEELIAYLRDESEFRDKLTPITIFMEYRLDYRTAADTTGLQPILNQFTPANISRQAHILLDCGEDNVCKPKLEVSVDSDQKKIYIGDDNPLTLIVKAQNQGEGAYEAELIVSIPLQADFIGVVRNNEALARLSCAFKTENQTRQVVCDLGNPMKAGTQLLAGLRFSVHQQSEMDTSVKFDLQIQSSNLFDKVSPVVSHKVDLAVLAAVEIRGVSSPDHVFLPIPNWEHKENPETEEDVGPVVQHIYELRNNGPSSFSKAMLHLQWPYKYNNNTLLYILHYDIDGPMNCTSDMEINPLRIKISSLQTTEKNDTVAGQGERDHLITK
Chain of αvβ3 (P06756 891-1048 partner limits assumed): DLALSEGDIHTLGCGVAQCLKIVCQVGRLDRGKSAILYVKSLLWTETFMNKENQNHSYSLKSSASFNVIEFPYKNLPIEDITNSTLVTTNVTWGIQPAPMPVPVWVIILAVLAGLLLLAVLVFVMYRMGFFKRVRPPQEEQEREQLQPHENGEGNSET
Chain of αvβ3 (P05106 27-788): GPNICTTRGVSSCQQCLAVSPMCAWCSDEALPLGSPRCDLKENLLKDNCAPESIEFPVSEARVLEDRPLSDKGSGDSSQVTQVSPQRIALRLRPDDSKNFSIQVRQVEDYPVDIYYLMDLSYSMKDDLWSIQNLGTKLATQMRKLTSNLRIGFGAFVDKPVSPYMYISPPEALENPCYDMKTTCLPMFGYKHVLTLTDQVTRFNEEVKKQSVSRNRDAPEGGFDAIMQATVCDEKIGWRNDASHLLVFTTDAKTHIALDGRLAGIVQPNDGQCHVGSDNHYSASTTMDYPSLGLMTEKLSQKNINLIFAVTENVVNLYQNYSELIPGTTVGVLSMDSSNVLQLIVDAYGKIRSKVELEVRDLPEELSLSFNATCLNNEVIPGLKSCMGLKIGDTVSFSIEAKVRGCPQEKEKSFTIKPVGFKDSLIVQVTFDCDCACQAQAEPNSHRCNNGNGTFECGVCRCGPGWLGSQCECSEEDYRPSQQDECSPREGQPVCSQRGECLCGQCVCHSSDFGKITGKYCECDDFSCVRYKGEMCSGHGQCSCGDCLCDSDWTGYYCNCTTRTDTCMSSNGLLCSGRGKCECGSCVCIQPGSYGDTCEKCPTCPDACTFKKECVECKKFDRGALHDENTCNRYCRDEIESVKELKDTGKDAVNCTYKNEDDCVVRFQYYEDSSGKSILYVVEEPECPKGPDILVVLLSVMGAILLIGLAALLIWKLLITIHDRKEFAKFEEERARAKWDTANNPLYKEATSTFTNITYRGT

ID8-VEGF ovarian tumors = experiment: T-cell levels in malignant ascites fluid of mice with ID8-VEGF ovarian tumors, flow cytometry; assay type: in vivo, C57BL/6 mice; settings: compared to control antibody
Experimental: Data bars represent the mean percentage of CD8+ T-cells (+SE from 4 mice per condition) in the ascites fluid from each experimental group.
Mice (C57BL/6) were injected intraperitoneally with ID8-VEGF ovarian tumor cells. ID8-VEGF tumor cells were allowed to grow within the peritoneal cavity of mice for 4-weeks to allow formation of malignant ascites fluid and solid tumors. Beginning at 4 weeks, mice were injected subcutaneously with 100 μg per mouse 2× per week with non-specific control antibody (Ab Cont) or anti-HU177 antibody (Anti-HU177). At 12 weeks, mice were sacrificed and malignant ascites fluid was collected. The relative levels of CD4+ Treg-cells within the malignant ascites fluid was quantified by flow cytometry. Data bars represent the mean percentage of CD4+ Treg cells+SE from 4 mice per condition in the ascites fluid from each experimental group.
Given the surprising results that the Mab HU177 enhanced T-cell migration on denatured collagen type-IV, we next evaluated if administration of HU-177 antibody could increase the levels of CD8+ T-cells found in malignant ascites fluid. […] The relative levels of CD8+ T-cells within the malignant ascites fluid was quantified by flow cytometry, for 4 mice per experimental condition. […]

activated fibroblasts = settings: cited from earlier work
tumor = settings: combination with anti-PDL-1 antibody; cited from earlier work

Substance: CQGPGGAAGGC [CP, reference compound]
- Hut78 T-cell migration (Hut78 T-cells; native collagen type-IV, peptide, absence of SDF-1): nor the non-specific control peptide had any significant effect

Substance: KGDRGDAPG (CKGDRGDAPGC; Synthetic: Synthetic collagen RGD containing peptide P-1) [synthetic collagen RGD peptide, Colla1 742-750]
- binding to αvβ3 (αvβ3): bound

Substance: Mab HU177: antibody specifically directed to denatured forms of collagen, cryptic CPGFPGFC (SEQ ID NO: 16) epitope
- mean % Treg cells in the ascites fluid (ID8-VEGF ovarian tumors; 100 μg per mouse subcutaneously twice a week from week 4, ascites at 12 weeks): significant decrease
- mean percentage of CD8+ T-cells in the ascites fluid (ID8-VEGF ovarian tumors; 100 μg/mouse subcutaneously twice a week from week 4, ascites at 12 weeks): significant increase
- activated fibroblast migration and accumulation within tumors in vivo (activated fibroblasts): inhibits
- anti-tumor efficacy of an immune checkpoint inhibitor (anti-PDL-1) in vivo (tumor): enhance the therapeutic activity
- Hut78 T-cell migration (Hut78 T-cells; denatured collagen type-IV, fab fragments, compared to control antibody): significantly enhanced

Reference: US20240327506A1, “METHODS AND COMPOSITION FOR THE SELECTIVE ENHANCEMENT OF ADOPTIVE CELL THERAPY” (MaineHealth, priority 2023, published 2024)
